This note sets out measurements from patent US6924297B2, “Naphathalene derivatives which bind to the EP4 receptor” (SmithKline Beecham Corporation, priority 2000, dated 2005).

The test has as its target T1, human EP4 receptor (Homo sapiens, UniProt P35408).
T1 construct: expressed in transfected cells; host or cells: Chinese Hamster Ovary (CHO) cells infected with recombinant Semliki Forest Virus (SFV-1) particles; membranes prepared from these cells
Nature of the test: Human EP4 Scintillation Proximity Assay (radioligand binding). To be noted: membranes of CHO cells expressing human EP4 receptor; [3H]-prostaglandin E2 radioligand; pKi from IC50 by Cheng-Prusoff; read-out: pKI at EP4 receptors (converted). The method, then:
Quantification of radioligand binding by scintillation proximity assay (SPA) is a long-established principle. Briefly, the affinity of compounds for a receptor is assessed by the specific competition between known quantities of radiolabelled ligand and compound for that receptor. Increasing concentrations of compound reduce the amount of radiolabel that binds to the receptor. This gives rise to a diminishing scintillation signal from SPA beads coated with membranes that bear the receptor. The signal may be detected with a suitable scintillation counter and the data generated may be analysed with suitable curve-fitting software.
The human EP4 SPA assay (hereafter referred to as ‘the assay’) utilises membranes prepared from Chinese Hamster Ovary (CHO cells) infected with Semliki Forest Virus (SFV). Genetically engineered SFV-1 viral particles containing the genetic sequence of the human EP4 receptor were used to infect CHO cells resulting in expression of the receptor protein in cellular membranes. Cells washed free of media are homogenised in a pH-buffered medium containing peptidase inhibitors. A suitable buffer is of the following composition: 50 mM HEPES, 1 mM EDTA, 25 μg/ml bacitracin, 100 μM leupeptin, 1 mM PMSF, 2 μM Pepstatin A, pH adjusted to 7.4 with KOH. Following removal of cell debris by a low-speed centrifugation, a pellet of membranes is prepared by a high-speed (48000 g) centrifugation of the resulting supernatant. Membrane suspensions such as that described may be stored at −80° C. until used.
For assay, membranes expressing human EP4 receptors are diluted in a pH-buffered medium and mixed with SPA beads coated with a suitable substance to facilitate the adhesion of membranes to the beads. The concentrations of membrane protein and SPA beads chosen should result in SPA binding signal of at least 300 corrected counts per minute (CCPM) when tritiated radioligand at a concentration close to its Kd (affinity value) is combined with the mixture. Non-specific binding (nsb) may be determined by competition between the radiolabelled ligand and a saturating concentration of unlabelled ligand. In order to quantify the affinity of EP4 receptor ligands, compounds are diluted in a stepwise manner across the wells of a 96-well plate. Radioligand, compound, and unlabelled ligand are then added to a 96-well plate suitable for the measurement of SPA binding signals prior to the addition of bead/membrane mixture to initiate the binding reaction. Equilibrium may be achieved by incubation at room temperature for 120 minutes prior to scintillation counting. The data so generated may be analysed by means of a computerised curve-fitting routine in order to quantify the concentration of compound that displaces 50% of the specific radioligand binding (IC50). The affinity (pKi) of the compound may be calculated from the IC50 by application of the Cheng-Prusoff correction. Suitable reagents and protocols are: reaction buffer containing 50 mM HEPES, 10 mM MgCl2, pH adjusted to 7.4 with KOH; SPA beads coated with wheatgerm agglutinin; 1.25 nM [^3H]-prostaglandin E2 as radioligand; 10 μM prostaglandin E2 as unlabelled ligand; a three-fold dilution series of compound starting at 10 μM and ending at 0.3 nM is adequate.
For orientation: Scintillation proximity formats need no separation of bound from free tracer.

T1 sequence (P35408 whole entry): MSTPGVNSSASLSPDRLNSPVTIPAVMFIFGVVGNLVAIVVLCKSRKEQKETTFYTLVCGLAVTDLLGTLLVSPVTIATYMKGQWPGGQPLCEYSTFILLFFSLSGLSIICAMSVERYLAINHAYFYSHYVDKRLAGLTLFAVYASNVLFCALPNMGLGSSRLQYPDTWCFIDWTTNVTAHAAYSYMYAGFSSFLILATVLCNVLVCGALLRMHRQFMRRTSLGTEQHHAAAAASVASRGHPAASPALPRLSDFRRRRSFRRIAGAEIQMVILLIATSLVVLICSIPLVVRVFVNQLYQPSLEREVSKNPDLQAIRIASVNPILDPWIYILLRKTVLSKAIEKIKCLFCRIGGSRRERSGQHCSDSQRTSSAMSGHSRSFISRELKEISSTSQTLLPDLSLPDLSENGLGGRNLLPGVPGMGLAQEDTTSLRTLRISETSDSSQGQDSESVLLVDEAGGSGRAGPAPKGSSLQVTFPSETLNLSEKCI

`CCOc1c2c(c(OCC)c3ccccc13)C(=O)N(c1ccc(CS(=O)(=O)NC(=O)C(C)(C)c3cccc(C)c3)cc1)C2=O` [Example 73]: the Ki was at most 100 nM.
Under `CCOc1ccc(CC(=O)NS(=O)(=O)Cc2ccc(N3Cc4c(c(OCC)c5ccccc5c4OCC)C3=O)cc2)cc1OCC` [Example 82] stands at most 100 nM.
For the compound `CCOc1c2c(c(OCC)c3ccccc13)C(=O)N(c1ccc(CS(=O)(=O)NC(=O)Cc3ccc(CC)cc3)cc1)C2` [Example 28], the Ki is at most 100 nM.
Under `CCOc1c2c(c(OCC)c3ccccc13)C(=O)N(c1ccc(CS(=O)(=O)NC(=O)Cc3ccccc3)cc1)C2` [Example 18, 1-[4-(4,9-diethoxy-1-oxo-1,3-dihydro-2H-benzo[f]isoindol-2-yl)phenyl]-N-(phenylacetyl)methanesulfonamide] stands at most 100 nM; under `CCOc1c2c(c(OCC)c3ccccc13)C(=O)N(c1ccc(CS(=O)(=O)NC(=O)Cn3ccc4ccccc43)cc1)C2` [Example 87], at most 100 nM.
For `CCOc1c2c(c(OCC)c3ccccc13)C(=O)N(c1ccc(CS(=O)(=O)NC(=O)Cc3ccc4ccccc4c3)cc1)C2=O` [Example 77] the value was at most 100 nM; for `CCOc1c2c(c(OCC)c3ccccc13)C(=O)N(c1ccc(CS(=O)(=O)NC(=O)Cc3cc(OC)cc(OC)c3)cc1)C2` [Example 83], at most 100 nM; for `CCOc1c2c(c(OCC)c3ccccc13)C(=O)N(c1ccc(CS(=O)(=O)NC(=O)Cc3ccc(OC)cc3)cc1)C2=O` [Example 2], at most 100 nM.
Take `CCOc1c2c(c(OCC)c3ccccc13)C(=O)N(c1ccc(CS(=O)(=O)NC(=O)Cc3ccc(OC(F)(F)F)cc3)cc1)C2` [Example 80]: the Ki was at most 100 nM.
Under `CCOc1c2c(c(OCC)c3ccccc13)C(=O)N(c1ccc(CS(=O)(=O)NC(=O)Cc3cccc(OC)c3)cc1)C2` [Example 43, 1-[4-(4,9-diethoxy-1-oxo-1,3-dihydro-2H-benzo[f]isoindol-2-yl)phenyl]-N-[(3-methoxyphenyl)acetyl]methanesulfonamide] stands at most 100 nM.
For `CCOc1c2c(c(OCC)c3ccccc13)C(=O)N(c1ccc(CS(=O)(=O)NC(=O)Cc3ccc(C)c(F)c3)cc1)C2=O` [Example 74] the value was at most 100 nM; for `CCOc1c2c(c(OCC)c3ccccc13)C(=O)N(c1ccc(CS(=O)(=O)NC(=O)C(Cl)c3ccccc3)cc1)C2=O` (centres unmarked) [Example 75], at most 100 nM; for `CCOc1c2c(c(OCC)c3ccccc13)C(=O)N(c1ccc(CS(=O)(=O)NC(=O)Cc3ccc4c(c3)OC(C)(C)O4)cc1)C2` [Example 85], at most 100 nM.
Turning to `CCOc1c2c(c(OCC)c3ccccc13)C(=O)N(c1ccc(CS(=O)(=O)NC(=O)Cc3ccc(Cl)cc3)cc1)C2=O` [Example 70], the Ki is at most 100 nM.
